Measured values published in PubChem BioAssay (NCI).
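Test compounds were applied to cells in 96-well plates for 48 hours at 5 doses. Definition used: TGI = concentration required for complete inhibition of growth.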

Key:
Assay in all cases: NCI anticancer screen, dose series, 48 h
MOLT-4 leukemia = test system: MOLT-4 leukemia
KM12 colon = test system: KM12 colon
HOP-92 NSCLC = test system: HOP-92 NSCLC
NCI-H226 lung = test system: NCI-H226 lung
SNB-75 CNS = test system: SNB-75 CNS
UO-31 renal = test system: UO-31 renal
HS 578T breast = test system: HS 578T breast
UACC-62 melanoma = test system: UACC-62 melanoma
786-0 renal = test system: 786-0 renal
PC-3 prostate = test system: PC-3 prostate
UACC-257 melanoma = test system: UACC-257 melanoma
SNB-19 CNS = test system: SNB-19 CNS
NCI-H23 lung = test system: NCI-H23 lung
M14 melanoma = test system: M14 melanoma
HOP-62 NSCLC = test system: HOP-62 NSCLC
OVCAR-8 ovarian = test system: OVCAR-8 ovarian
ACHN renal = test system: ACHN renal
RXF 393 renal = test system: RXF 393 renal
SK-MEL-2 melanoma = test system: SK-MEL-2 melanoma
K-562 leukemia = test system: K-562 leukemia
HCC-2998 colon = test system: HCC-2998 colon
SK-MEL-5 melanoma = test system: SK-MEL-5 melanoma
NCI/ADR-RES ovarian = test system: NCI/ADR-RES ovarian
SK-OV-3 ovarian = test system: SK-OV-3 ovarian
HL-60(TB) leukemia = test system: HL-60(TB) leukemia
SR leukemia = test system: SR leukemia
COLO 205 colon = test system: COLO 205 colon
OVCAR-4 ovarian = test system: OVCAR-4 ovarian
SF-539 CNS = test system: SF-539 CNS
HCT-15 colon = test system: HCT-15 colon
SK-MEL-28 melanoma = test system: SK-MEL-28 melanoma
SF-295 CNS = test system: SF-295 CNS
IGROV1 ovarian = test system: IGROV1 ovarian
A498 renal = test system: A498 renal
CAKI-1 renal = test system: CAKI-1 renal
MCF7 breast = test system: MCF7 breast
SW-620 colon = test system: SW-620 colon
LOX IMVI melanoma = test system: LOX IMVI melanoma
EKVX NSCLC = test system: EKVX NSCLC
T-47D breast = test system: T-47D breast
NCI-H460 lung = test system: NCI-H460 lung
U251 CNS = test system: U251 CNS
BT-549 breast = test system: BT-549 breast
CCRF-CEM leukemia = test system: CCRF-CEM leukemia
MDA-MB-231 breast = test system: MDA-MB-231 breast
TK-10 renal = test system: TK-10 renal
SF-268 CNS = test system: SF-268 CNS
RPMI-8226 leukemia = test system: RPMI-8226 leukemia
HT29 colon = test system: HT29 colon
MDA-MB-435 = test system: MDA-MB-435
DU-145 prostate = test system: DU-145 prostate
HCT-116 colon = test system: HCT-116 colon
OVCAR-3 ovarian = test system: OVCAR-3 ovarian
SN12C renal = test system: SN12C renal
A549 NSCLC = test system: A549 NSCLC
NCI-H522 lung = test system: NCI-H522 lung
OVCAR-5 ovarian = test system: OVCAR-5 ovarian

O=C(Nc1ccc(Cl)cc1)c1cc2c(cc1Cl)SC(NNCCO)=NS2(=O)=O
TGI (MOLT-4 leukemia): > 100 µM
TGI (KM12 colon): > 100 µM
TGI (HOP-92 NSCLC): > 100 µM
TGI (NCI-H226 lung): > 100 µM
TGI (SNB-75 CNS): > 100 µM
TGI (UO-31 renal): > 100 µM
TGI (HS 578T breast): > 100 µM
TGI (UACC-62 melanoma): > 100 µM
TGI (786-0 renal): > 100 µM
TGI (PC-3 prostate): > 100 µM
TGI (UACC-257 melanoma): > 100 µM
TGI (SNB-19 CNS): > 100 µM
TGI (NCI-H23 lung): > 100 µM
TGI (M14 melanoma): > 100 µM
TGI (HOP-62 NSCLC): > 100 µM
TGI (OVCAR-8 ovarian): > 100 µM
TGI (ACHN renal): > 100 µM
TGI (RXF 393 renal): > 100 µM
TGI (SK-MEL-2 melanoma): > 100 µM
TGI (K-562 leukemia): > 100 µM
TGI (HCC-2998 colon): > 100 µM
TGI (SK-MEL-5 melanoma): > 100 µM
TGI (NCI/ADR-RES ovarian): > 100 µM
TGI (SK-OV-3 ovarian): > 100 µM
TGI (HL-60(TB) leukemia): > 100 µM
TGI (SR leukemia): > 100 µM
TGI (COLO 205 colon): > 100 µM
TGI (OVCAR-4 ovarian): > 100 µM
TGI (SF-539 CNS): > 100 µM
TGI (HCT-15 colon): > 100 µM
TGI (SK-MEL-28 melanoma): > 100 µM
TGI (SF-295 CNS): > 100 µM
TGI (IGROV1 ovarian): > 100 µM
TGI (A498 renal): > 100 µM
TGI (CAKI-1 renal): > 100 µM
TGI (MCF7 breast): > 100 µM
TGI (SW-620 colon): > 100 µM
TGI (LOX IMVI melanoma): > 100 µM
TGI (EKVX NSCLC): > 100 µM
TGI (T-47D breast): > 100 µM
TGI (NCI-H460 lung): > 100 µM
TGI (U251 CNS): > 100 µM
TGI (BT-549 breast): > 100 µM
TGI (CCRF-CEM leukemia): > 100 µM
TGI (MDA-MB-231 breast): > 100 µM
TGI (TK-10 renal): > 100 µM
TGI (SF-268 CNS): > 100 µM
TGI (RPMI-8226 leukemia): > 100 µM
TGI (HT29 colon): > 100 µM
TGI (MDA-MB-435): > 100 µM
TGI (DU-145 prostate): > 100 µM
TGI (HCT-116 colon): > 100 µM

COc1ccc(C(C)c2cc3c(cc2O)OCO3)cc1 (stereo not drawn)
TGI (OVCAR-3 ovarian): 28.3 µM
TGI (MOLT-4 leukemia): 29.4 µM
TGI (KM12 colon): 83.3 µM
TGI (HOP-92 NSCLC): 31 µM
TGI (NCI-H226 lung): 36.1 µM
TGI (SNB-75 CNS): 60.2 µM
TGI (UO-31 renal): 29.8 µM
TGI (HS 578T breast): 42.6 µM
TGI (UACC-62 melanoma): 24.4 µM
TGI (786-0 renal): 34.5 µM
TGI (PC-3 prostate): 31.9 µM
TGI (UACC-257 melanoma): 32.2 µM
TGI (SNB-19 CNS): 66.6 µM
TGI (NCI-H23 lung): 31.1 µM
TGI (M14 melanoma): 27.2 µM
TGI (HOP-62 NSCLC): 33.7 µM
TGI (OVCAR-8 ovarian): 31.7 µM
TGI (ACHN renal): 47.6 µM
TGI (RXF 393 renal): 30.1 µM
TGI (SK-MEL-2 melanoma): 28.9 µM
TGI (K-562 leukemia): 28.7 µM
TGI (SN12C renal): 33.3 µM
TGI (HCC-2998 colon): 19.3 µM
TGI (SK-MEL-5 melanoma): 28.1 µM
TGI (A549 NSCLC): 32.2 µM
TGI (NCI/ADR-RES ovarian): 32.7 µM
TGI (SK-OV-3 ovarian): 53.2 µM
TGI (HL-60(TB) leukemia): 32.3 µM
TGI (SR leukemia): 13.6 µM
TGI (COLO 205 colon): 27.4 µM
TGI (NCI-H522 lung): 26 µM
TGI (OVCAR-4 ovarian): > 100 µM
TGI (SF-539 CNS): 37 µM
TGI (HCT-15 colon): 23.2 µM
TGI (SK-MEL-28 melanoma): 33 µM
TGI (SF-295 CNS): 35.3 µM
TGI (IGROV1 ovarian): 36.5 µM
TGI (A498 renal): 28.5 µM
TGI (CAKI-1 renal): 74.4 µM
TGI (MCF7 breast): 30.8 µM
TGI (SW-620 colon): 28 µM
TGI (LOX IMVI melanoma): 26.5 µM
TGI (EKVX NSCLC): 49.6 µM
TGI (T-47D breast): 79.1 µM
TGI (NCI-H460 lung): 28.8 µM
TGI (U251 CNS): 28.6 µM
TGI (BT-549 breast): 32.5 µM
TGI (MDA-MB-231 breast): 28.6 µM
TGI (TK-10 renal): 35.9 µM
TGI (SF-268 CNS): 32.5 µM
TGI (OVCAR-5 ovarian): 45.2 µM
TGI (RPMI-8226 leukemia): 38.8 µM
TGI (HT29 colon): 28.9 µM
TGI (MDA-MB-435): 18 µM
TGI (DU-145 prostate): 36.5 µM
TGI (HCT-116 colon): 29.6 µM
